In PubChem BioAssay (NCI):
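Growth conditions: 96-well plates. Treatment: test compound, 48 hours, 5 concentrations. Analysis: linear interpolation between bracketing concentrations; unreached endpoints set to highest concentration. GI50 marks 50% less growth. At the TGI there is no net growth.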

Assays:
Assay in all cases: DTP human tumour cell line panel, 48 h
SK-OV-3 ovarian = tested on: SK-OV-3 ovarian
MOLT-4 leukemia = tested on: MOLT-4 leukemia
SK-MEL-28 melanoma = tested on: SK-MEL-28 melanoma
MALME-3M melanoma = tested on: MALME-3M melanoma
UACC-257 melanoma = tested on: UACC-257 melanoma
K-562 leukemia = tested on: K-562 leukemia
SNB-75 CNS = tested on: SNB-75 CNS
COLO 205 colon = tested on: COLO 205 colon
KM12 colon = tested on: KM12 colon
UO-31 renal = tested on: UO-31 renal

Cc1c2c(c(O)c3c(O)cccc13)C(=O)C1(O)C(O)=C(C(=O)NCNc3ccc(C(N)=O)cn3)C(=O)C(N(C)C)C1C2 (stereo not drawn)
TGI (SK-OV-3 ovarian): 8.78 µM
TGI (MOLT-4 leukemia): 9.41 µM
TGI (SK-MEL-28 melanoma): 14.6 µM
TGI (MALME-3M melanoma): > 100 µM
TGI (UACC-257 melanoma): > 100 µM
TGI (K-562 leukemia): 6.26 µM
TGI (SNB-75 CNS): 9.22 µM
TGI (COLO 205 colon): > 100 µM
TGI (KM12 colon): 15.6 µM

CCOC(=O)C1=NN(c2ccc([N+](=O)[O-])cc2)[C@@]2(C)C[C@]3(c4ccccc4)N(c4ccc([N+](=O)[O-])cc4)N=C(C(=O)OCC)N3c3ccccc3N12
TGI (SK-OV-3 ovarian): > 100 µM
TGI (MOLT-4 leukemia): > 100 µM
TGI (SK-MEL-28 melanoma): > 100 µM
TGI (MALME-3M melanoma): > 100 µM
TGI (UACC-257 melanoma): > 100 µM
TGI (K-562 leukemia): > 100 µM
TGI (UO-31 renal): > 100 µM
TGI (SNB-75 CNS): > 100 µM
TGI (COLO 205 colon): > 100 µM
TGI (KM12 colon): > 100 µM

Cc1cccc2c1c(=O)c1c(O)c3c(cc1n2C)OC(C)(C)C=C3
TGI (SK-OV-3 ovarian): > 10 µM
TGI (MOLT-4 leukemia): > 10 µM
TGI (SK-MEL-28 melanoma): > 10 µM
TGI (MALME-3M melanoma): > 10 µM
TGI (UACC-257 melanoma): > 10 µM
TGI (K-562 leukemia): > 10 µM
TGI (SNB-75 CNS): > 10 µM
TGI (COLO 205 colon): > 10 µM
TGI (KM12 colon): > 10 µM

O=C1CSC(c2ccccc2[N+](=O)[O-])N1c1ccc(-c2ccc(-n3c(-c4ccccc4)nc4ccccc4c3=O)cc2)cc1 (stereo not drawn)
TGI (SK-OV-3 ovarian): > 100 µM
TGI (MOLT-4 leukemia): > 100 µM
TGI (SK-MEL-28 melanoma): > 100 µM
TGI (MALME-3M melanoma): > 100 µM
TGI (UACC-257 melanoma): > 100 µM
TGI (K-562 leukemia): > 100 µM
TGI (UO-31 renal): > 100 µM
TGI (SNB-75 CNS): 61.3 µM
TGI (COLO 205 colon): > 100 µM
TGI (KM12 colon): > 100 µM

COc1cc(NCCC2CCCCN2)c2ncccc2c1 (stereo not drawn)
TGI (SK-OV-3 ovarian): > 100 µM
TGI (MOLT-4 leukemia): > 68.6 µM
TGI (SK-MEL-28 melanoma): > 59.8 µM
TGI (MALME-3M melanoma): > 57.6 µM
TGI (UACC-257 melanoma): 41.1 µM
TGI (K-562 leukemia): > 66.3 µM
TGI (UO-31 renal): > 100 µM
TGI (SNB-75 CNS): > 100 µM
TGI (COLO 205 colon): 28.6 µM
TGI (KM12 colon): > 100 µM

COC1CN(C)C(=Nc2cccc3ccccc23)S1 (stereo not drawn)
TGI (SK-OV-3 ovarian): > 10 µM
TGI (MOLT-4 leukemia): > 10 µM
TGI (SK-MEL-28 melanoma): > 10 µM
TGI (MALME-3M melanoma): > 10 µM
TGI (UACC-257 melanoma): > 10 µM
TGI (K-562 leukemia): > 10 µM
TGI (SNB-75 CNS): > 10 µM
TGI (COLO 205 colon): > 10 µM
TGI (KM12 colon): > 10 µM

Cc1cc(/C=C/c2cc[n+](C)c3ccccc23)c(O)c2ncccc12
TGI (SK-OV-3 ovarian): 13 µM
TGI (MOLT-4 leukemia): 7.47 µM
TGI (SK-MEL-28 melanoma): 13.6 µM
TGI (MALME-3M melanoma): 12.4 µM
TGI (UACC-257 melanoma): 13.5 µM
TGI (K-562 leukemia): 13.7 µM
TGI (UO-31 renal): 21.3 µM
TGI (SNB-75 CNS): 24 µM
TGI (COLO 205 colon): 23.3 µM
TGI (KM12 colon): 18.6 µM

CC(=O)Nc1c(C)cc2c(nc3n2CCC3OC(C)=O)c1[N+](=O)[O-] (stereo not drawn)
TGI (SK-OV-3 ovarian): > 100 µM
TGI (MOLT-4 leukemia): > 100 µM
TGI (SK-MEL-28 melanoma): > 100 µM
TGI (MALME-3M melanoma): > 100 µM
TGI (UACC-257 melanoma): > 100 µM
TGI (K-562 leukemia): > 100 µM
TGI (UO-31 renal): > 100 µM
TGI (SNB-75 CNS): > 100 µM
TGI (COLO 205 colon): > 100 µM
TGI (KM12 colon): > 100 µM

N#CC(=N)c1ncn(-c2ccc(N)cc2)c1N
TGI (SK-OV-3 ovarian): > 100 µM
TGI (MOLT-4 leukemia): > 100 µM
TGI (SK-MEL-28 melanoma): > 100 µM
TGI (MALME-3M melanoma): > 100 µM
TGI (UACC-257 melanoma): > 100 µM
TGI (K-562 leukemia): > 100 µM
TGI (UO-31 renal): > 100 µM
TGI (SNB-75 CNS): > 100 µM
TGI (COLO 205 colon): > 100 µM
TGI (KM12 colon): > 100 µM

Cc1c(N2CCN(C)CC2)nc2ccc(Cl)cc2c1-c1ccccc1
TGI (SK-OV-3 ovarian): > 100 µM
TGI (MOLT-4 leukemia): > 10 µM
TGI (SK-MEL-28 melanoma): 32.9 µM
TGI (MALME-3M melanoma): 35.7 µM
TGI (UACC-257 melanoma): 33 µM
TGI (K-562 leukemia): 35.7 µM
TGI (UO-31 renal): 36.1 µM
TGI (SNB-75 CNS): 36.5 µM
TGI (COLO 205 colon): 29.7 µM
TGI (KM12 colon): 28.5 µM

CC(=O)OCC1OC(n2c(-c3ccccc3)c(C(C)=O)c(-c3cccc4ccccc34)c(C#N)c2=S)C(OC(C)=O)C(OC(C)=O)C1OC(C)=O (stereo not drawn)
TGI (SK-OV-3 ovarian): > 100 µM
TGI (MOLT-4 leukemia): > 100 µM
TGI (SK-MEL-28 melanoma): > 100 µM
TGI (MALME-3M melanoma): > 100 µM
TGI (UACC-257 melanoma): > 100 µM
TGI (K-562 leukemia): > 100 µM
TGI (UO-31 renal): 0.0252 µM
GI50 (SNB-75 CNS): 0.022 µM
TGI (SNB-75 CNS): > 100 µM
TGI (COLO 205 colon): > 100 µM
TGI (KM12 colon): > 100 µM

O=C(O)CCSCc1ccccc1
TGI (SK-OV-3 ovarian): > 100 µM
TGI (MOLT-4 leukemia): > 100 µM
TGI (SK-MEL-28 melanoma): > 100 µM
TGI (MALME-3M melanoma): > 100 µM
TGI (UACC-257 melanoma): > 100 µM
TGI (K-562 leukemia): > 100 µM
TGI (UO-31 renal): > 100 µM
TGI (SNB-75 CNS): > 100 µM
TGI (COLO 205 colon): > 100 µM
TGI (KM12 colon): > 100 µM

CC(C)=CC(Cc1ccccc1)S(=O)(=O)c1nc2ccccc2s1 (stereo not drawn)
TGI (SK-OV-3 ovarian): 47.5 µM
TGI (MOLT-4 leukemia): 7.95 µM
TGI (SK-MEL-28 melanoma): 32.3 µM
TGI (MALME-3M melanoma): 32.1 µM
TGI (UACC-257 melanoma): 54.2 µM
TGI (K-562 leukemia): 33.4 µM
TGI (UO-31 renal): 27.5 µM
TGI (SNB-75 CNS): 41.1 µM
TGI (COLO 205 colon): 34.9 µM
TGI (KM12 colon): 35.8 µM

CCOC(=O)C1(C(=O)OCC)OC(C)=NC1(C(=O)OC)C(=O)OC
TGI (SK-OV-3 ovarian): > 100 µM
TGI (MOLT-4 leukemia): > 100 µM
TGI (SK-MEL-28 melanoma): > 100 µM
TGI (MALME-3M melanoma): > 100 µM
TGI (UACC-257 melanoma): > 100 µM
TGI (K-562 leukemia): > 100 µM
TGI (UO-31 renal): > 100 µM
TGI (SNB-75 CNS): 98.1 µM
TGI (COLO 205 colon): > 100 µM
TGI (KM12 colon): > 100 µM

COC(=O)c1cc(C(=CCC[C@H]2CC[C@@]3(C)C(CCC4C3CC[C@@]3(C)C4CC[C@@H]3C(C)CCCC(C)C)C2)c2cc(Cl)c(O)c(C(=O)OC)c2)cc(Cl)c1O (stereo partly drawn)
TGI (SK-OV-3 ovarian): > 10 µM
TGI (MOLT-4 leukemia): > 10 µM
TGI (SK-MEL-28 melanoma): > 10 µM
TGI (MALME-3M melanoma): > 10 µM
TGI (UACC-257 melanoma): > 10 µM
TGI (K-562 leukemia): > 10 µM
TGI (UO-31 renal): > 10 µM
TGI (SNB-75 CNS): > 10 µM
TGI (COLO 205 colon): > 10 µM
TGI (KM12 colon): > 10 µM

NCCCC[C@H](N)C(=O)Nc1ccc(-c2nc3ccccc3s2)cc1
TGI (SK-OV-3 ovarian): 39.2 µM
TGI (MOLT-4 leukemia): 31.2 µM
TGI (SK-MEL-28 melanoma): 33.8 µM
TGI (MALME-3M melanoma): 34.9 µM
TGI (UACC-257 melanoma): > 100 µM
TGI (K-562 leukemia): 36.3 µM
TGI (UO-31 renal): 26 µM
TGI (SNB-75 CNS): 35.2 µM
TGI (COLO 205 colon): 33.6 µM
TGI (KM12 colon): 34.9 µM

C/C=C(\C)C(O)C(C)C(O)C/C=C(C)/C=C(\C)C/C(C)=C/C/C=C(\C)C(O)C(C)c1ccc(CCC)c(=O)o1 (stereo not drawn)
TGI (SK-OV-3 ovarian): 94.5 µM
TGI (MOLT-4 leukemia): > 100 µM
TGI (SK-MEL-28 melanoma): 32.3 µM
TGI (MALME-3M melanoma): 27.1 µM
TGI (UACC-257 melanoma): 15.2 µM
TGI (K-562 leukemia): > 100 µM
TGI (UO-31 renal): 21 µM
TGI (SNB-75 CNS): 25.2 µM
TGI (COLO 205 colon): 16.8 µM
TGI (KM12 colon): 23.8 µM

NC(Cc1ccc(N(CCCl)CCCl)cc1)C(=O)NC(CCC(=O)O)C(=O)O (stereo not drawn)
TGI (SK-OV-3 ovarian): > 100 µM
TGI (MOLT-4 leukemia): > 100 µM
TGI (SK-MEL-28 melanoma): > 100 µM
TGI (MALME-3M melanoma): > 100 µM
TGI (UACC-257 melanoma): > 100 µM
TGI (K-562 leukemia): > 100 µM
TGI (UO-31 renal): > 100 µM
TGI (SNB-75 CNS): > 100 µM
TGI (COLO 205 colon): > 100 µM
TGI (KM12 colon): > 100 µM

CC(C)NC(=O)N(Nc1ccccc1)C(C)(C)C
TGI (SK-OV-3 ovarian): > 100 µM
TGI (MOLT-4 leukemia): > 100 µM
TGI (SK-MEL-28 melanoma): > 100 µM
TGI (MALME-3M melanoma): > 100 µM
TGI (UACC-257 melanoma): > 100 µM
TGI (K-562 leukemia): > 100 µM
TGI (UO-31 renal): > 100 µM
TGI (SNB-75 CNS): > 100 µM
TGI (COLO 205 colon): > 100 µM
TGI (KM12 colon): > 100 µM

COC(O)C(=O)c1ccc2c(c1)CC1(C2)Cc2cc3c(cc2C1=O)CCC3 (stereo not drawn)
TGI (SK-OV-3 ovarian): 31.9 µM
TGI (MOLT-4 leukemia): 64 µM
TGI (SK-MEL-28 melanoma): 29.6 µM
TGI (MALME-3M melanoma): 36.1 µM
TGI (UACC-257 melanoma): 39.7 µM
TGI (K-562 leukemia): 21.8 µM
TGI (UO-31 renal): 30.5 µM
TGI (SNB-75 CNS): 37.5 µM
TGI (COLO 205 colon): 47.2 µM
TGI (KM12 colon): 43.9 µM
